Laboratory results: ChEMBL document CHEMBL1155591, “New anabaenopeptins, potent carboxypeptidase-A inhibitors from the cyanobacterium Aphanizomenon flos-aquae” (J Nat Prod, 2000)
Activity calls are given as the source filed them. The rule behind the calls is not given here. Starred links: 1 amine or outer side, 2 acyl side, 3 side chain; linkers in the order of their positions; H or OH if unused. Positions of bridges follow the written chain, without caps; N, C: chain ends. Non-standard residues stand in square brackets, D forms with d. Residues, ends and D or L forms follow the SMILES beside them. NMehTyr = CN[C@@H](CCc1ccc(O)cc1)C(=O)O; hTyr = N[C@@H](CCc1ccc(O)cc1)C(=O)O; NMeA = CN[C@@H](C)C(=O)O; CO = O=C([*:1])[*:2]

Legend:
[1] = target: T1, Carboxypeptidase A1 (Homo sapiens) (UniProt P15085); assay: Inhibition of carboxypeptidase A at 10 ug/ml
T1 sequence (whole entry): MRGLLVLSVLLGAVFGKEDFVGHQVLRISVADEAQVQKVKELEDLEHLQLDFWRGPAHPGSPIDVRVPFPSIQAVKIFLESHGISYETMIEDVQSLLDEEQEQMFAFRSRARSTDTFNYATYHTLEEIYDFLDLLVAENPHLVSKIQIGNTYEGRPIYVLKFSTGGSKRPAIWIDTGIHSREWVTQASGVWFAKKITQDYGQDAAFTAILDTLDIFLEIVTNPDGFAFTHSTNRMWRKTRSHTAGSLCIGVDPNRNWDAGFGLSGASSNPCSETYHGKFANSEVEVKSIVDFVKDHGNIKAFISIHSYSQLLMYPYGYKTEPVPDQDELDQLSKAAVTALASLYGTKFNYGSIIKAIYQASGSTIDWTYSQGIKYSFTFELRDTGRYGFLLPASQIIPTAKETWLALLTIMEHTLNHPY

Carboxypeptidase A1 = target: T2, Carboxypeptidase A1 (Homo sapiens, UniProt P15085); assay: Inhibition of carboxypeptidase A
T2 sequence (P15085 whole entry): T1 sequence (whole entry)

| SMILES | Activity [1] | IC50 (Carboxypeptidase A1) [nM] |
| --- | --- | --- |
| CC(C)[C@@H]1NC(=O)[C@H](NC(=O)N[C@@H](CCCNC(=N)N)C(=O)O)CCCCNC(=O)[C@H](Cc2ccccc2)NC(=O)[C@H](C)N(C)C(=O)[C@H](CCc2ccc(O)cc2)N(C)C1=O | inactive | – |
| CC[C@H](C)[C@@H]1NC(=O)[C@H](NC(=O)N[C@@H](Cc2ccc(O)cc2)C(=O)O)CCCCNC(=O)[C@H]([C@@H](C)CC)NC(=O)[C@H](CCc2ccc(O)cc2)N(C)C(=O)[C@H](CCc2ccc(O)cc2)NC1=O [ANABAENOPEPTIN G] ({Tyr-CO}-[dK]I[hTyr][NMehTyr]I; lactam 1-C) | – | 7.53 |
| CC[C@H](C)[C@@H]1NC(=O)[C@H](NC(=O)N[C@@H](CCCNC(=N)N)C(=O)O)CCCCNC(=O)[C@H]([C@@H](C)CC)NC(=O)[C@H](CCc2ccc(O)cc2)N(C)C(=O)[C@H](CCc2ccc(O)cc2)NC1=O [ANABAENOPEPTIN H] ({Arg-CO}-[dK]I[hTyr][NMehTyr]I; lactam 1-C) | – | 3680 |
| CC[C@H](C)[C@H](NC(=O)N[C@@H]1CCCCNC(=O)[C@H](CC(C)C)NC(=O)[C@H](C)N(C)C(=O)[C@H](CCc2ccc(O)cc2)NC(=O)[C@H](C(C)C)NC1=O)C(=O)O [ANABAENOPEPTIN I] ({Ile-CO}-[dK]V[hTyr][NMeA]L; lactam 1-C) | – | 6.84 |
| CC[C@H](C)[C@H](NC(=O)N[C@@H]1CCCCNC(=O)[C@H](Cc2ccccc2)NC(=O)[C@H](C)N(C)C(=O)[C@H](CCc2ccc(O)cc2)NC(=O)[C@H](C(C)C)NC1=O)C(=O)O [ANABAENOPEPTIN J] ({Ile-CO}-[dK]V[hTyr][NMeA]F; lactam 1-C) | – | 9.57 |
| CC[C@H](C)[C@H](NC(=O)N[C@@H]1CCCCNC(=O)[C@H]([C@@H](C)CC)NC(=O)[C@H](CCc2ccc(O)cc2)N(C)C(=O)[C@H](CCc2ccc(O)cc2)NC(=O)[C@H](C(C)C)NC1=O)C(=O)O [ANABAENOPEPTIN T] ({Ile-CO}-[dK]V[hTyr][NMehTyr]I; lactam 1-C) | – | 25.4 |

More lines, main results first:

| Activity [1] | SMILES | IC50 (Carboxypeptidase A1) [nM] |
| --- | --- | --- |
| inactive | CC[C@H](C)[C@@H]1NC(=O)[C@H](NC(=O)N[C@@H](CCCNC(=N)N)C(=O)O)CCCCNC(=O)[C@H](Cc2ccccc2)NC(=O)[C@H](C)N(C)C(=O)[C@H](CCc2ccc(O)cc2)NC1=O ({Arg-CO}-[dK]I[hTyr][NMeA]F; lactam 1-C) | – |
| inactive | CC(C)[C@@H]1NC(=O)[C@H](NC(=O)N[C@@H](CCCNC(=N)N)C(=O)O)CCCCNC(=O)[C@H](Cc2ccccc2)NC(=O)[C@H](C)N(C)C(=O)[C@H](CCc2ccc(O)cc2)NC1=O ({Arg-CO}-[dK]V[hTyr][NMeA]F; lactam 1-C) | – |
